Assays:
[1] = target: T1, TEM-1 β-lactamase (Escherichia coli, UniProt P62593); assay: TEM-1 β-lactamase inhibition assay (nitrocefin hydrolysis, 486 nm); format: biochemical
Description: The inhibition of TEM-1 β-lactamase was determined spectrophotometrically. B-lactamase activity was followed by measuring the hydrolysis of nitrocefin, [3-(2,4-dinitrostyryl)-(6R, 7R)-7-(2-thienylacetamido)-ceph-3-em-4-carboxylic acid, E-isomer], (Calbiochem, San Diego, Calif., USA) at 486 nm. Inhibition assays were performed at 25° C. in 50 mM sodium phosphate, 5% DMSO, pH 7.0. […] Inhibitor was added to the enzyme and incubated for ten minutes before the addition of substrate. Inhibition constants (Ki) for the inhibitors are obtained at the desired temperature and solvent conditions by measuring the rate of substrate hydrolysis at increasing amounts of inhibitors.
(§1) The competitive inhibition of β-lactamase was determined spectrophotometrically using a Varian (Walnut Creek, Calif.) Cary 100 UV-Visible spectrophotometer. β-lactamase activity was followed by measuring the hydrolysis of nitrocefin, [3-(2,4-dinitrostyryl)-(6R, 7R)-7-(2-thienylacetamido)-ceph-3-em-4-carboxylic acid, E-isomer], (Calbiochem, San Diego, Calif.) at 486 nm. Inhibition assays were performed at 25° C. in 50 mM sodium phosphate, 5% DMSO, pH 7.0. […] Penicillin G (Sigma, St. Louis, Mo.) was also used as a substrate to determine KM and kcat.
(§2) Inhibitor was added to protein and incubated for ten minutes before the addition of substrate. Inhibition constants were determined by measuring the loss of P-lactamase activity with increasing inhibitor concentrations and fitting the data to standard equations for competitive inhibition.
(§3) These methods can also be used to express and assay recombinant TEM-1 variant of β-lactamase.

[2] = target: T2, AmpC β-lactamase (Escherichia coli, UniProt P00811); assay: AmpC β-lactamase competitive inhibition assay (nitrocefin hydrolysis); format: biochemical
T2 construct: made in house; host or cells: E. coli BL21 (DE3)
Description: The gene for AmpC β-lactamase (accession number P00811) was obtained from Escherichia coli K12 strain W3110 (American Type Culture Collection, Rockville Md.). E. coli was grown and plasmid (F-lacIq lacPL8 ampC::lambdacI+) was isolated via Qiagen (Valencia, Calif.) mini prep. The gene for AmpC was amplified in two pieces via polymerase chain reaction, ligated and purified by agarose gel electrophoresis. The ligated gene was inserted into a pET200 vector via a TOPO reaction (Invitrogen, Carlsbad, Calif.).
BL21 (DE3) (Invitrogen) cells were transformed by heat-shock with the prepared plasmid. These cells were grown to an OD600 of 0.8 at 37° C. Isopropylthiogalactoside (IPTG) was added to 1 mM, incubation temperature decreased to 25° C. and the cells were grown for an additional 18 hours. After 18 hours, the E. coli was pelleted by centrifugation, and discarded. The growth media was concentrated and dialyzed versus 100 mM Tris, pH 7.0. This solution was run through an equilibrated Q-resin column, and washed with excess 100 mM Tris, pH 7.0.
as §1, §2

[3] = target: T2, AmpC β-lactamase; settings: binding to AmpC; ITC
Description: (§4) Isothermal titration calorimetry was performed on a high-precision VP-ITC titration calorimeter (Microcal Inc., Northampton, Mass.). β-Lactamase solutions were titrated with inhibitors in 50 mM sodium phosphate, 2% DMSO, pH 7.0, with β-lactamase concentrations ranging from 15 to 25 μM and inhibitor concentrations ranging from 300 to 1000 μM. The heat evolved from each injection was obtained by integrating the calorimetric signal. Heat of binding was obtained as the difference between the heat of reaction and the heat of inhibitor dilution. Data were analyzed using Origin 7.0 (OriginLab Corporation, Northampton, Mass.).
Isothermal titration calorimetry was undertaken to determine the thermodynamic characteristics of binding to AmpC β-lactamase.

[4] = target: T1, TEM-1 β-lactamase; assay: Isothermal titration calorimetry, binding to TEM-1 β-lactamase (Example 17); settings: ITC
Description: as §4, §3
Also shown are the results obtained for β-lactamase variant TEM-1.

[5] = Ki, 25° C., 50 mM sodium phosphate, 5% DMSO, pH 7.0, enzyme 5 nM, nitrocefin 167 μM
[6] = Ki from Lineweaver-Burke Analysis, values in parenthesis, Lineweaver-Burke analysis

T1 sequence (P62593 24-286 limits assumed): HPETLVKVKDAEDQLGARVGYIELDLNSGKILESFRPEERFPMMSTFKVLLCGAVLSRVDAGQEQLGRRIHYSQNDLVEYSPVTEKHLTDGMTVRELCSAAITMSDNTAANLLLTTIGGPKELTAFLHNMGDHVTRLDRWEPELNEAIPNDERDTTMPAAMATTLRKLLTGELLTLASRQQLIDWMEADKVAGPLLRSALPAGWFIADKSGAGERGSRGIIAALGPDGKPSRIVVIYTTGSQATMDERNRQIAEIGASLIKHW
T2 sequence (P00811 20-377): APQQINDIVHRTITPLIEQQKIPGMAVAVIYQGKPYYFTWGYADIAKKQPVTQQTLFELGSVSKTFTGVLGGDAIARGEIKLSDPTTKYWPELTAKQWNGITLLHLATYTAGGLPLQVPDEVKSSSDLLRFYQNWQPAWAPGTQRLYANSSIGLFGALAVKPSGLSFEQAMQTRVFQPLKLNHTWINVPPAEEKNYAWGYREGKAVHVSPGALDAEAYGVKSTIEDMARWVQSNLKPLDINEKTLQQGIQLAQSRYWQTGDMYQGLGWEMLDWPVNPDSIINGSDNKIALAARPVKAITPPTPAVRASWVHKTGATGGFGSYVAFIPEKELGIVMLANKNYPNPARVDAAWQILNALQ

Cc1cccc(OC(=O)c2cc(B(O)O)cc([N+](=O)[O-])c2)c1 [(1m), 3-(3-Methylphenoxycarbonyl)-5-nitrophenylboronic acid]
Ki [1, 5]: 114 ± 12 µM

O=C(Oc1ccncc1)c1cc(B(O)O)cc([N+](=O)[O-])c1 [(1r), 3-(4-pyridyloxycarbonyl)-5-nitro-phenylboronic acid]
Ki [1, 5]: 138 ± 2.7 µM

O=C(Oc1ccccc1Br)c1cc(B(O)O)cc([N+](=O)[O-])c1 [(1u), 3-(2-Bromophenoxycarbonyl)-5-nitro-phenylboronic acid]
Ki [1, 6]: 1.68 µM | Ki [1, 5]: 25 ± 2.5 µM

O=C(Oc1c(Cl)cccc1[N+](=O)[O-])c1ccc(B(O)O)cc1F [(8a), 4-(2-Chloro-6-nitrophenoxycarbonyl)-3-fluorophenylboronic acid]
Ki [1, 5]: 43 ± 1.6 µM | Ki [2]: 0.913 µM | ΔG [3]: -8.19 kcal/mol | ΔH [3]: -8.486 kcal/mol | −TΔS [3]: 0.296 kcal/mol

CCOC(=O)c1ccc(OC(=O)c2cc(B(O)O)cc([N+](=O)[O-])c2)cc1 [Compound (1e), 3-(4-Ethoxycarbonylphenoxycarbonyl)-5-nitrophenylboronic acid]
Ki [1, 5]: > 1000 µM

Cc1ccccc1OC(=O)c1cc(B(O)O)cc([N+](=O)[O-])c1 [Compound (1k), 3-(2-Methylphenoxycarbonyl)-5-nitro-phenylboronic acid]
Ki [1, 5]: 130 ± 18 µM

COc1ccccc1OC(=O)c1cc(B(O)O)cc([N+](=O)[O-])c1 [Compound (1l), 3-(2-Methoxylphenoxycarbonyl)-5-nitrophenylboronic acid]
Ki [1, 5]: 116 ± 7 µM

O=C(Oc1c(Cl)cccc1Cl)c1cc(B(O)O)cc([N+](=O)[O-])c1 [Compound (1n), 3-(2,6-Dichlorophenoxycarbonyl)-5-nitrophenylboronic acid]
Ki [1, 6]: 0.62 µM | Ki [1, 5]: 8.8 ± 0.5 µM | Ki ([1]; Ki, TEM-1 β-lactamase): 8.8 µM | ΔG [4]: -5.608 kcal/mol | ΔH [4]: -1.173 kcal/mol | −TΔS [4]: -4.435 kcal/mol

O=C(Oc1ccccc1F)c1cc(B(O)O)cc([N+](=O)[O-])c1 [Compound (1o), 3-(2-Fluorophenoxycarbonyl)-5-nitrophenylboronic acid]
Ki [1, 5]: 49.3 ± 4.6 µM

O=C(Oc1c(F)cccc1F)c1cc(B(O)O)cc([N+](=O)[O-])c1 [Compound (1p), 3-(2,6-Difluorophenoxycarbonyl)-5-nitrophenylboronic acid]
Ki [1, 5]: 19.8 ± 1.3 µM | Ki ([1]; Ki, TEM-1 β-lactamase): 19.8 µM | ΔG [4]: -5.916 kcal/mol | ΔH [4]: -6.715 kcal/mol | −TΔS [4]: 0.799 kcal/mol

O=C(Oc1ccc(F)cc1)c1cc(B(O)O)cc([N+](=O)[O-])c1 [Compound (1q), 3-(4-Fluorophenoxycarbonyl)-5-nitrophenylboronic acid]
Ki [1, 5]: 100 ± 8 µM

O=C(Oc1cccnc1Cl)c1cc(B(O)O)cc([N+](=O)[O-])c1 [Compound (1s), 3-(2-Chloro-3-pyridyloxycarbonyl)-5-nitrophenylboronic acid]
Ki [1, 5]: 42.3 ± 2.4 µM

O=C(Oc1ccccc1)c1cc(B(O)O)cc([N+](=O)[O-])c1 [Compound (1t), 3-Phenoxycarbonyl-5-nitrophenylboronic acid]
Ki [1, 6]: 6.54 µM | Ki [1, 5]: 95 ± 8.7 µM

O=C(Oc1cccc(B(O)O)c1)c1cc(B(O)O)cc([N+](=O)[O-])c1 [Compound (1v), 3-(3-Boronophenoxycarbonyl)-5-nitrophenylboronic acid]
Ki [1, 5]: 32 ± 1.1 µM | Ki [2]: 5.01 µM | ΔG [3]: -7.221 kcal/mol | ΔH [3]: -10.412 kcal/mol | −TΔS [3]: 3.191 kcal/mol

O=C(Oc1c(Cl)cc(Cl)cc1[N+](=O)[O-])c1cc(B(O)O)cc([N+](=O)[O-])c1 [Compound (1w), 3-(2,4-Dichloro-6-nitro-phenoxycarbonyl)-5-nitro-phenylboronic acid]
Ki [1, 5]: 13 ± 1.1 µM | Ki ([1]; Ki, TEM-1 β-lactamase): 12.7 µM | ΔG [4]: -6.409 kcal/mol | ΔH [4]: -4.554 kcal/mol | −TΔS [4]: -1.855 kcal/mol

O=C(Oc1c(Cl)cc(Cl)cc1Cl)c1cc(B(O)O)cc([N+](=O)[O-])c1 [Compound (1y), 3-(2,4,6-Trichlorophenoxycarbonyl)-5-nitro-phenylboronic acid]
Ki ([1]; Ki, TEM-1 β-lactamase): 15.8 µM | ΔG [4]: -6.55 kcal/mol | ΔH [4]: 0 kcal/mol | −TΔS [4]: -6.55 kcal/mol

O=C(Oc1ccc(OC(=O)c2cc(B(O)O)cc([N+](=O)[O-])c2)cc1)c1cc(B(O)O)cc([N+](=O)[O-])c1 [Compound (2a), 3-Borono-5-nitrobenzoic acid 1,4-phenylene ester]
Ki [1, 5]: 22.7 ± 1.3 µM | Ki ([1]; Ki, TEM-1 β-lactamase): 22.7 µM | ΔG [4]: -7.451 kcal/mol | ΔH [4]: 0.274 kcal/mol | −TΔS [4]: -7.725 kcal/mol

O=C(OCc1c(Cl)cccc1Cl)c1cc(B(O)O)cc([N+](=O)[O-])c1 [Compound (3a), 3-(2,6-Dichlorobenzyloxycarbonyl)-5-nitrophenylboronic]
Ki [1, 6]: 4.97 µM | Ki [1, 5]: 34 ± 2.9 µM

O=C(OCc1cccc([N+](=O)[O-])c1)c1cc(B(O)O)cc([N+](=O)[O-])c1 [Compound (3b), 3-(3-Nitrobenzyloxycarbonyl)-5-nitrophenylboronic acid]
Ki [1, 6]: 2.76 µM | Ki [1, 5]: 27 ± 3.4 µM

O=C(OCc1cccc(Cl)c1)c1cc(B(O)O)cc([N+](=O)[O-])c1 [Compound (3c), 3-(3-Chlorobenzyloxycarbonyl)-5-nitrophenylboronic acid]
Ki [1, 6]: 2.35 µM | Ki [1, 5]: 25 ± 1.5 µM

O=C(OCc1cccc2ccccc12)c1cc(B(O)O)cc([N+](=O)[O-])c1 [Compound (3e), 3-(1-Naphthalenemethoxycarbonyl)-5-nitrophenylboronic acid]
Ki ([1]; Ki, TEM-1 β-lactamase): 17.1 µM | ΔG [4]: -6.164 kcal/mol | ΔH [4]: 0.224 kcal/mol | −TΔS [4]: -6.388 kcal/mol

Nc1cc(B(O)O)cc(C(=O)OCc2cccc(B(O)O)c2)c1 [Compound (3f), 3-(3-Boronobenzyloxycarbonyl)-5-aminophenylboronic acid]
Ki [2]: 0.724 µM | ΔG [3]: -8.151 kcal/mol | ΔH [3]: -9.325 kcal/mol | −TΔS [3]: 1.174 kcal/mol

O=C(OCc1cccc(B(O)O)c1)c1cc(O)cc(B(O)O)c1 [Compound (3g), 3-(3-Boronobenzyloxycarbonyl)-5-hydroxylphenylboronic acid]
Ki [2]: 2.69 µM | ΔG [3]: -7.356 kcal/mol | ΔH [3]: -3.677 kcal/mol | −TΔS [3]: -3.679 kcal/mol

O=C(O)c1cc(NC(=O)c2ccccc2F)cc(B(O)O)c1 [Compound (4a), 3-(2-Fluorobenzamido)-5-carboxylphenylboronic acid]
Ki [1, 5]: 143 ± 9 µM

Nc1cc(B(O)O)cc(C(=O)O)c1 [Compound (5a), 3–5-carboxylphenylboronic acid]
Ki [1, 5]: 727 ± 49 µM

O=C(Oc1cccc(OC(=O)c2cc(B(O)O)cc([N+](=O)[O-])c2)c1)c1cc(B(O)O)cc([N+](=O)[O-])c1 [Compound (9a), 3-Borono-5-nitrobenzoic acid 1,3-phenylene ester]
Ki [1, 5]: 16 ± 1.5 µM | Ki ([1]; Ki, TEM-1 β-lactamase): 16.2 µM | ΔG [4]: -7.864 kcal/mol | ΔH [4]: 0.446 kcal/mol | −TΔS [4]: -8.31 kcal/mol

O=C(Oc1cccc(B(O)O)c1)c1ccc(C(=O)Oc2cccc(B(O)O)c2)cc1 [Compound (11a), 1,4-Benzenedicarboxylic Acid, di 3-boronophenyl ester]
Ki [2]: 1.31 µM | ΔG [3]: -7.548 kcal/mol | ΔH [3]: -3.114 kcal/mol | −TΔS [3]: -4.434 kcal/mol

CCCCOC(=O)c1cccc(B(O)O)c1 [Compound BB-1003]
Ki [1, 5]: 231 µM

CC(C)(C)OC(=O)Oc1cccc(B(O)O)c1 [Compound BB-1004]
Ki [1, 5]: 297 µM

O=C(c1cccc(B(O)O)c1)N1CCCC1 [Compound BB-1005]
Ki [1, 5]: 392 µM

O=C(OCc1ccccc1)c1ccc(B(O)O)cc1 [Compound F1002]
Ki [1, 5]: 148 µM

OB(O)c1cccc2c1Sc1ccccc1S2 [Compound F1012]
Ki [1, 5]: 113 µM

From patent publication US7183267B2, “β-lactamase inhibitors and methods of use thereof” (priority 2003, dated 2007)
